Test results published in patent US20120183579A1, “COMPOUNDS FOR INFLAMMATION AND IMMUNE-RELATED USES” (Synta Pharmaceuticals Corp., priority 2008, published 2012).
Where a name gives a salt, the structure may show the parent alone.

The compounds below were run on IL-2 (assay: Inhibition of IL-2 production (Jurkat cells activated with PHA, ELISA)). Conditions: Homo sapiens, Jurkat, Jurkat/PHA/1% FBS; activity class.
Type: cell-based
Method: Jurkat cells were placed in a 96 well plate (0.5 million cells per well in 1% FBS medium), and then a test compound of this invention was added at different concentrations. After 10 minutes, the cells were activated with PHA (final concentration 2.5 μg/mL) and incubated for 20 hours at 37° C. under 5% CO2. The final volume was 200 μL. Following incubation, the cells were centrifuged, and the supernatants collected and stored at −70° C. prior to assaying for IL-2 production. A commercial ELISA kit (IL-2 Eli-pair, Diaclone Research, Besancon, France) was used to detect production of IL-2, from which dose response curves were obtained. The IC50 value was calculated as the concentration at which 50% of maximum IL-2 production after stimulation was inhibited versus a non-stimulation control.

| Structure (SMILES) | IC50 |
| --- | --- |
| CC1=C(c2cnc(NC(=O)c3c(F)cccc3F)cn2)CN(c2nc(-c3cccnc3)cs2)CC1 [Compound 17, 2,6-difluoro-N-(5-(4-methyl-1-(4-(pyridin-3-yl)thiazol-2-yl)-1,2,5,6-tetrahydropyridin-3-yl)pyrazin-2-yl)benzamide] | 50 to 100 nM |

Same assay, conditions: Homo sapiens, Jurkat, Jurkat/PHA/1% FBS; numeric values

| Structure (SMILES) | IC50 |
| --- | --- |
| CC1=C(c2ccc(NC(=O)c3ccccc3F)cc2)CN(c2nccs2)CC1 [Compound 7, 2-fluoro-N-(4-(4-methyl-1-(thiazol-2-yl)-1,2,5,6-tetrahydropyridin-3-yl)phenyl)benzamide] | 13 nM |
| Cn1nnc(N2CCC(C3CC3)=C(c3ccc(NC(=O)c4c(F)cccc4F)cc3)C2)n1 [Compound 8, N-(4-(4-cyclopropyl-1-(2-methyl-2H-tetrazol-5-yl)-1,2,5,6-tetrahydropyridin-3-yl)phenyl)-2,6-difluorobenzamide] | 14 nM |
| CC1=C(c2cnc(NC(=O)c3c(F)cccc3F)cn2)CN(c2ncc(C)s2)CC1 [Compound 9, 2,6-difluoro-N-(5-(4-methyl-1-(5-methylthiazol-2-yl)-1,2,5,6-tetrahydropyridin-3-yl)pyrazin-2-yl)benzamide hydrochloride] | 15 nM |
| CC1=C(c2cnc(NC(=O)c3c(F)cccc3F)cn2)CN(c2ncccc2C#N)CC1 [Compound 10, N-(5-(1-(3-cyanopyridin-2-yl)-4-methyl-1,2,5,6-tetrahydropyridin-3-yl)pyrazin-2-yl)-2,6-difluorobenzamide] | 18 nM |
| O=C(Nc1cnc(C2=C(Cl)CCN(c3nccs3)C2)cn1)c1c(F)cccc1F [Compound 12, N-(5-(4-chloro-1-(thiazol-2-yl)-1,2,5,6-tetrahydropyridin-3-yl)pyrazin-2-yl)-2,6-difluorobenzamide hydrochloride] | 19 nM |
| CC1=C(c2cnc(NC(=O)c3cc(F)ccc3C)cn2)CN(c2ncccc2F)CC1 [Compound 13, 5-fluoro-N-(5-(1-(3-fluoropyridin-2-yl)-4-methyl-1,2,5,6-tetrahydropyridin-3-yl)pyrazin-2-yl)-2-methylbenzamide] | 30 nM |
| CC1=C(c2cnc(NC(=O)c3cc(F)ccc3Cl)cn2)CN(c2ncccc2F)CC1 [Compound 16, 2-chloro-5-fluoro-N-(5-(1-(3-fluoropyridin-2-yl)-4-methyl-1,2,5,6-tetrahydropyridin-3-yl)pyrazin-2-yl)benzamide] | 30 nM |
| CCn1nnc(N2CCC(C)=C(c3cnc(NC(=O)c4c(F)cccc4Cl)cn3)C2)n1 [Compound 18, 2-chloro-N-(5-(1-(2-ethyl-2H-tetrazol-5-yl)-4-methyl-1,2,5,6-tetrahydropyridin-3-yl)pyrazin-2-yl)-6-fluorobenzamide] | 32 nM |
| CC1=C(c2cnc(NC(=O)c3c(F)cccc3F)cn2)CN(c2ncc(F)cc2F)CC1 [Compound 19, N-(5-(1-(3,5-difluoropyridin-2-yl)-4-methyl-1,2,5,6-tetrahydropyridin-3-yl)pyrazin-2-yl)-2,6-difluorobenzamide] | 36 nM |
| CC1=C(c2ccc(NC(=O)c3c(F)cccc3F)cc2)CN(c2nnn(C)n2)CC1 [Compound 20, 2,6-difluoro-N-(4-(4-methyl-1-(2-methyl-2H-tetrazol-5-yl)-1,2,5,6-tetrahydropyridin-3-yl)phenyl)benzamide] | 52 nM |
| CC1=C(c2cnc(NC(=O)c3cc(F)ccc3Cl)cn2)CN(c2nccs2)CC1 [Compound 21, 2-chloro-5-fluoro-N-(5-(4-methyl-1-(thiazol-2-yl)-1,2,5,6-tetrahydropyridin-3-yl)pyrazin-2-yl)benzamide] | 55 nM |
| CC1=C(c2cnc(NC(=O)c3ccc(F)cc3F)cn2)CN(c2nccs2)CC1 [Compound 22, 2,4-difluoro-N-(5-(4-methyl-1-(thiazol-2-yl)-1,2,5,6-tetrahydropyridin-3-yl)pyrazin-2-yl)benzamide] | 10 nM |
| CC1=C(c2ccc(NC(=O)c3ccncc3F)cc2)CN(c2ncccc2F)CC1 [Compound 23, 3-fluoro-N-(4-(1-(3-fluoropyridin-2-yl)-4-methyl-1,2,5,6-tetrahydropyridin-3-yl)phenyl)isonicotinamide] | 14 nM |
| CC1=C(c2cnc(NC(=O)c3c(F)cccc3F)cn2)CN(c2ncccc2O)CC1 [Compound 24, 2,6-difluoro-N-(5-(1-(3-hydroxypyridin-2-yl)-4-methyl-1,2,5,6-tetrahydropyridin-3-yl)pyrazin-2-yl)benzamide] | 14 nM |
| CC1=C(c2ccc(NC(=O)c3ccccc3Cl)cc2)CN(c2nnn(C)n2)CC1 [Compound 25, 2-chloro-N-(4-(4-methyl-1-(2-methyl-2H-tetrazol-5-yl)-1,2,5,6-tetrahydropyridin-3-yl)phenyl)benzamide] | 17 nM |
| CC1=C(c2ccc(NC(=O)c3c(F)cncc3F)cc2)CN(c2ccccn2)CC1 [Compound 26, 3,5-difluoro-N-(4-(4-methyl-1-(pyridin-2-yl)-1,2,5,6-tetrahydropyridin-3-yl)phenyl)isonicotinamide hydrochloride] | 18 nM |
| CC1=C(c2ccc(NC(=O)c3ccncc3Cl)cc2)CN(c2nnn(C)n2)CC1 [Compound 27, 3-chloro-N-(4-(4-methyl-1-(2-methyl-2H-tetrazol-5-yl)-1,2,5,6-tetrahydropyridin-3-yl)phenyl)isonicotinamide] | 19 nM |
| O=C(Nc1ccc(C2=C(Cl)CCN(c3nccs3)C2)cc1)c1c(F)cccc1F [Compound 28, N-(4-(4-chloro-1-(thiazol-2-yl)-1,2,5,6-tetrahydropyridin-3-yl)phenyl)-2,6-difluorobenzamide] | 19 nM |
| CC1=C(c2ccc(NC(=O)c3cccc(F)c3Cl)cc2)CN(c2nnn(C)n2)CC1 [Compound 29, 2-chloro-3-fluoro-N-(4-(4-methyl-1-(2-methyl-2H-tetrazol-5-yl)-1,2,5,6-tetrahydropyridin-3-yl)phenyl) benzamide] | 20 nM |
| CC1=C(c2ccc(NC(=O)c3ccccc3F)cc2)CN(c2nnn(C)n2)CC1 [Compound 30, 2-fluoro-N-(4-(4-methyl-1-(2-methyl-2H-tetrazol-5-yl)-1,2,5,6-tetrahydropyridin-3-yl)phenyl)benzamide] | 21 nM |
| CC1=C(c2cnc(NC(=O)c3cnccc3C)cn2)CN(c2ncccc2F)CC1 [Compound 31, N-(5-(1-(3-fluoropyridin-2-yl)-4-methyl-1,2,5,6-tetrahydropyridin-3-yl)pyrazin-2-yl)-4-methylnicotinamide] | 21 nM |
| CC1=C(c2ccc(NC(=O)c3c(F)cccc3F)cc2)CN(c2ccccn2)CC1 [Compound 33, 2,6-difluoro-N-(4-(4-methyl-1-(pyridin-2-yl)-1,2,5,6-tetrahydropyridin-3-yl)phenyl)benzamide] | 22 nM |
| Cn1nnc(N2CCC(Cl)=C(c3ccc(NC(=O)c4c(F)cccc4F)cc3)C2)n1 [Compound 34, N-(4-(4-chloro-1-(2-methyl-2H-tetrazol-5-yl)-1,2,5,6-tetrahydropyridin-3-yl)phenyl)-2,6-difluorobenzamide] | 22 nM |
| CC1=C(c2cnc(NC(=O)c3ccccc3Cl)cn2)CN(c2nccnc2Cl)CC1 [Compound 35, 2-chloro-N-(5-(1-(3-chloropyrazin-2-yl)-4-methyl-1,2,5,6-tetrahydropyridin-3-yl)pyrazin-2-yl)benzamide] | 23 nM |

Same assay, conditions: Jurkat/PHA/1% FBS; numeric values; hydrochloride

| Structure (SMILES) | IC50 |
| --- | --- |
| O=C(Nc1ccc(C2=C(Cl)CCN(c3nccs3)C2)cc1)c1c(F)cccc1F [Compound 32, N-(4-(4-chloro-1-(thiazol-2-yl)-1,2,5,6-tetrahydropyridin-3-yl)phenyl)-2,6-difluorobenzamide hydrochloride] | 21 nM |
